Test results: patent publication US11639332B2, “Methods and compositions of isoindoline-1,3-dione and isoindole prodrugs useful for treating cancer, ulcerative colitis and related inflammatory diseases” (AMGEN (EUROPE) GMBH, priority 2018, dated 2023)
Values joined by “and” are separate entries in the source; they are usually repeats but may differ in a detail not shown here. Identical values can stand only once.

System: Trinitrobenzenesulfonic Acid (TNBS) Rat Model of Colonic Inflammation
Assay: Trinitrobenzenesulfonic acid (TNBS) rat model of colonic inflammation, oral treatment Days 1-6, evaluation Day 7
Assay type: in vivo, Sprague-Dawley rats
Design: key to Average Colonic Score: sum of adhesions, strictures, ulcers and wall thickness scores
Conditions: for Average # Ulcers / Average Colon Length / Average Colon Weight / Average Colonic Score / Average Ratio (colon length/colon weight) / Average Ulcer Length / Average Wall Thickness / Average Adhesions / Average Colon Wall Thickness, score / Average Strictures / Average Ulcers, score / Average Rat Weight: group mean; for Average # Ulcers / Average Colon Length / Average Colon Weight / Average Colonic Score / Average Ratio (colon length/colon weight) / Average Ulcer Length / Average Wall Thickness / Average Adhesions / Average Colon Wall Thickness, score / Average Strictures / Average Ulcers, score / # Ulcers / Colon Length / Colon Weight / Ratio (colon length/colon weight) / Ulcer Length / Wall Thickness / Colon Wall Thickness, score / Ulcers, score / Strictures / Adhesions / Colonic Score: Day 7; for Average Adhesions / Average Colon Wall Thickness, score: score 0-2; for Average Strictures / Average Ulcers, score: score 0-3; for # Ulcers / Colon Length / Colon Weight / Ratio (colon length/colon weight) / Ulcer Length / Wall Thickness / Colon Wall Thickness, score / Ulcers, score / Strictures / Adhesions / Colonic Score / Rat Weight: individual rats; for Colon Wall Thickness, score: less than 1 mm=0, 1-3 mm=1, >3 mm=2; for Ulcers, score: none=0, linear ulceration <1 cm=1, two linear ulcers <1 cm=2, more sites or one large ulcer=3; for Strictures: score none=0, mild=1, moderate=2, severe, proximal dilatation=3; for Adhesions: score none=0, minimal=1, involving several bowel loops=2; for Colonic Score: sum of adhesions, strictures, ulcers and wall thickness scores
Description: In Vivo Efficacy of PDE4 Inhibitor Prodrug in the Trinitrobenzenesulfonic Acid (TNBS) Rat Model of Colonic Inflammation
2. 1.62 g of prodrug from Example 2 (WB301), lot 2 (MW 587.12) in a clear 20 mL glass vial (orange material) which was stored at 4-8° C.
38 Sprague-Dawley rats (Harlan Sprague-Dawley, Inc. male, PO #599229, R #3450, 200-220 g) were received, individually examined and housed in nine cages of four rats each and one cage containing two rats. No clinical signs of disease or distress were observed. The rats were placed in quarantine with daily inspections. The rats were ear notched (SOP 800) for identification purposes, weighed (RESULTS), and sorted into four treatment groups of eight rats each based upon average body weight. The rats were individually examined and found to be free of any clinical signs of disease or distress. No deaths were recorded during the quarantine period. The rats were released to routine maintenance.
A 16 mg/ml TNBS solution was prepared be adding 2.729 ml picrylsulfonic acid solution (1 M, FLU KA, Cat. 92822, lot CDBB6609V) to 22.271 ml de-ionized water (dH20) and 25 ml 100% ethanol (200 proof, Sigma, Cat. E7023, lot SHBH3633V).
The rats were weighed (RESULTS), anesthetized (SOP1810) and Groups 1-4 were intra-rectally instilled with 4 ml/kg TNBS solution (64 mg/kg), the anus was pinched closed and the rat held inverted for one minute.
400 mg (-)riboflavin was dissolved in 40 ml DMSO (Sigma, Cat. D5879, lot 16K0127) by sonication in a 40° C. water bath for 20 minutes in an amber glass bottle, followed by storage at room temperature overnight to prepare a 10 mg/ml yellow solution.
135 mg NaOH (Fisher Scientific, Cat. S320, lot 066620) was dissolved in 100 ml dH2O to prepare a 1.35 mg/ml solution. 128.46 mg prednisolone 21-hemisuccinate sodium salt (Sigma, Cat. P4153, lot BCBB6136V, salt factor 1.339) was dissolved in 9.59 ml (-)riboflavin/DMSO followed by addition of 9.59 ml PEG400 (Sigma, Cat. 91893, lot BCBB7720). 28.781 aqueous NaOH was added with sonication to prepare a 2 mg/ml solution for Group 4. 44 mg WB301 was vortexed in 2.19 ml (-)riboflavin/DMSO to yield an orange solution followed by addition of 2.19 ml PEG400. 6.621 ml aqueous NaOH was added with sonication to prepare a 4 mg/ml solution for Group 1. 132 mg WB301 was vortexed in 2.19 ml (-)riboflavin/DMSO to yield an orange solution followed by addition of 2.19 ml PEG400. 6.621 ml aqueous NaOH was added with sonication to prepare a 12 mg/ml solution for Group 2. 6.6 mg apremilast was vortexed in 2.2 ml (-)riboflavin/DMSO to yield an orange solution followed by addition of 6.6 ml PEG400. 2.2 ml dH2O was added to prepare a 0.6 mg/ml solution for Group 3.
The rats were weighed (RESULTS) and daily oral (PO, SOP 1651) dosing at 5 ml/kg was initiated as in TABLE 1.
The rats were weighed (RESULTS) and the animals were dosed as described above daily. WB301 and apremilast solutions were prepared fresh daily as described above.
The rats were weighed (RESULTS) anesthetized, a midline incision was made in the abdomen and the colon was evaluated for adhesions and stricture (RESULTS). The colon was removed and the length recorded (RESULTS). A midline incision was made the entire length of the colon, the contents removed and the colon weight and colon wall thickness recorded (RESULTS). A section of the colon was preserved in 20 volumes of 10% neutral buffered formalin (Richard-Allan Scientific, Cat. 5701, lot 378532, exp07/2020). The carcasses were disposed of.
3) involving several bowel loops=2
4) severe, proximal dilatation=3
2) linear ulceration <1 cm=1
3) two linear ulcers <1 cm=2
4) more sites of ulceration or one large ulcer=3

[1] = Group 1, 20 mg/kg once daily oral, starting 24 hours after TNBS
[2] = Group 2, 60 mg/kg once daily oral
[3] = Group 2, 60 mg/kg PO daily, study day 0, day of TNBS, before dosing
[4] = Group 2, 60 mg/kg PO daily, study day 1, before first dose
[5] = Group 2, 60 mg/kg PO daily, study day 2
[6] = Group 2, 60 mg/kg PO daily, study day 3
[7] = Group 2, 60 mg/kg PO daily, study day 4
[8] = Group 2, 60 mg/kg PO daily, study day 5
[9] = Group 2, 60 mg/kg PO daily, study day 6
[10] = Group 2, 60 mg/kg PO daily, study day 7
[11] = Group 2, 60 mg/kg PO daily, study day −3, before TNBS and dosing

Compound: CCOc1cc([C@@H](CS(C)(=O)=O)N2C(=O)c3cccc(/N=N/c4ccc(O)c(C(=O)O)c4)c3C2=O)ccc1OC [WB301]
- effect on TNBS-induced damage across doses (20 and 60 mg/kg once daily oral, starting 24 hours after TNBS): dose-dependent reduction in the TNBS-induced damage
- amelioratory effect on TNBS-induced damage [1]: no apparent amelioratory effect was observed
- weight loss [1]: 15%
- macroscopic disease scores [2]: improvement of the macroscopic disease scores
- study day on which rats began to recover from TNBS-induced weight loss [2]: 6 days
- reduction in overall colonic score (Group 2, 60 mg/kg once daily oral, assuming a colonic score of 10 for vehicle-treated rats): 25%
- stool observation in cages/bedding (Group 2, 60 mg/kg once daily oral, starting DAY 4, indicative of partial colon function): Diarrhea was observed in the bedding
- Average # Ulcers (Group 1, 20 mg/kg PO daily): 1
- Average Colon Length (Group 1, 20 mg/kg PO daily): 11.4 cm
- Average Colon Weight (Group 1, 20 mg/kg PO daily): 6.652 g
- Average Colonic Score (Group 1, 20 mg/kg PO daily): 9.1
- Average Ratio (colon length/colon weight) (Group 1, 20 mg/kg PO daily): 1.915 cm/g
- Average Ulcer Length (Group 1, 20 mg/kg PO daily): 6.3 cm
- Average Wall Thickness (Group 1, 20 mg/kg PO daily): 3.4 mm
- Average Adhesions (Group 1, 20 mg/kg PO daily): 1.5
- Average Colon Wall Thickness, score (Group 1, 20 mg/kg PO daily): 1.8
- Average Strictures (Group 1, 20 mg/kg PO daily): 2.9
- Average Ulcers, score (Group 1, 20 mg/kg PO daily): 3.0
- Average Rat Weight (Group 1, 20 mg/kg PO daily, study day 0, day of TNBS, before dosing): 219 g
- Average Rat Weight (Group 1, 20 mg/kg PO daily, study day 1, before first dose): 213 g
- Average Rat Weight (Group 1, 20 mg/kg PO daily, study day 2): 203 g
- Average Rat Weight (Group 1, 20 mg/kg PO daily, study day 3): 197 g
- Average Rat Weight (Group 1, 20 mg/kg PO daily, study day 4): 195 g
- Average Rat Weight (Group 1, 20 mg/kg PO daily, study day 5): 189 g
- Average Rat Weight (Group 1, 20 mg/kg PO daily, study day 6): 189 g
- Average Rat Weight (Group 1, 20 mg/kg PO daily, study day 7): 186 g
- Average Rat Weight (Group 1, 20 mg/kg PO daily, study day −3, before TNBS and dosing): 215 g
- Average # Ulcers (Group 2, 60 mg/kg PO daily): 1
- Average Colon Length (Group 2, 60 mg/kg PO daily): 14.4 cm
- Average Colon Weight (Group 2, 60 mg/kg PO daily): 4.604 g
- Average Colonic Score (Group 2, 60 mg/kg PO daily): 7.5
- Average Ratio (colon length/colon weight) (Group 2, 60 mg/kg PO daily): 3.891 cm/g
- Average Ulcer Length (Group 2, 60 mg/kg PO daily): 5.6 cm
- Average Wall Thickness (Group 2, 60 mg/kg PO daily): 2.6 mm
- Average Adhesions (Group 2, 60 mg/kg PO daily): 1.3
- Average Colon Wall Thickness, score (Group 2, 60 mg/kg PO daily): 1.1
- Average Strictures (Group 2, 60 mg/kg PO daily): 2.1
- Average Ulcers, score (Group 2, 60 mg/kg PO daily): 3.0
- Average Rat Weight [3]: 216 g
- Average Rat Weight [4]: 207 g
- Average Rat Weight [5]: 200 g
- Average Rat Weight [6]: 193 g
- Average Rat Weight [7]: 192 g
- Average Rat Weight [8]: 191 g
- Average Rat Weight [9]: 195 g
- Average Rat Weight [10]: 196 g
- Average Rat Weight [11]: 215 g
- # Ulcers (Group 1, 20 mg/kg PO daily): 1
- Colon Length (Group 1, 20 mg/kg PO daily): 12.0 cm and 10.0 cm and 10.5 cm and 11.0 cm (3×) and 12.5 cm and 13.5 cm
- Colon Weight (Group 1, 20 mg/kg PO daily): 9.124 g and 7.629 g and 3.180 g and 4.920 g and 9.000 g and 8.300 g and 6.200 g and 4.862 g
- Ratio (colon length/colon weight) (Group 1, 20 mg/kg PO daily): 1.315 cm/g and 1.311 cm/g and 3.302 cm/g and 2.236 cm/g and 1.389 cm/g and 1.325 cm/g and 2.177 cm/g and 2.262 cm/g
- Ulcer Length (Group 1, 20 mg/kg PO daily): 6.0 cm (3×) and 6.3 cm and 7.0 cm and 5.5 cm and 6.8 cm and 6.5 cm
- Wall Thickness (Group 1, 20 mg/kg PO daily): 3.5 mm and 3.2 mm and 4.0 mm (2×) and 3.7 mm (2×) and 2.5 mm (2×)
- Colon Wall Thickness, score (Group 1, 20 mg/kg PO daily): 2 (6×) and 1 (2×)
- Ulcers, score (Group 1, 20 mg/kg PO daily): 3
- Strictures (Group 1, 20 mg/kg PO daily): 3 (7×) and 2
- Adhesions (Group 1, 20 mg/kg PO daily): 1 (4×) and 2 (4×)
- Colonic Score (Group 1, 20 mg/kg PO daily): 9 (2×) and 10 (4×) and 8 and 7
- # Ulcers (Group 2, 60 mg/kg PO daily): 1
- Colon Length (Group 2, 60 mg/kg PO daily): 15.0 cm (5×) and 14.5 cm and 14.0 cm and 11.5 cm
- Colon Weight (Group 2, 60 mg/kg PO daily): 2.551 g and 1.969 g and 6.164 g and 5.418 g and 9.037 g and 4.831 g and 4.140 g and 2.719 g
- Ratio (colon length/colon weight) (Group 2, 60 mg/kg PO daily): 5.880 cm/g and 7.618 cm/g and 2.352 cm/g and 2.769 cm/g and 1.549 cm/g and 3.105 cm/g and 3.623 cm/g and 4.229 cm/g
- Ulcer Length (Group 2, 60 mg/kg PO daily): 3.5 cm and 4.0 cm and 6.0 cm (2×) and 6.5 cm (2×) and 6.7 cm and 5.5 cm
- Wall Thickness (Group 2, 60 mg/kg PO daily): 2.0 mm (4×) and 3.0 mm (2×) and 4.0 mm and 2.5 mm
- Colon Wall Thickness, score (Group 2, 60 mg/kg PO daily): 1 (7×) and 2
- Ulcers, score (Group 2, 60 mg/kg PO daily): 3
- Strictures (Group 2, 60 mg/kg PO daily): 1 (2×) and 0 and 3 (5×)
- Adhesions (Group 2, 60 mg/kg PO daily): 0 (2×) and 2 (4×) and 1 (2×)
- Colonic Score (Group 2, 60 mg/kg PO daily): 5 and 4 and 9 (3×) and 8 and 10 and 6
- Rat Weight [3]: 217 g and 215 g and 214 g and 222 g and 208 g and 211 g and 220 g (2×)
- Rat Weight [4]: 206 g and 202 g and 213 g (2×) and 207 g and 203 g (2×) and 212 g
- Rat Weight [5]: 205 g and 199 g and 204 g and 200 g (2×) and 195 g and 206 g and 193 g
- Rat Weight [6]: 199 g and 200 g (2×) and 197 g and 196 g and 184 g (2×) and 183 g
- Rat Weight [7]: 192 g and 212 g and 200 g (2×) and 193 g and 179 g and 183 g and 176 g
- Rat Weight [8]: 196 g and 226 g and 191 g and 192 g and 182 g and 174 g and 199 g and 171 g
- Rat Weight [9]: 207 g and 233 g and 193 g and 197 g and 184 g and 172 g and 199 g and 171 g
- Rat Weight [10]: 220 g and 244 g and 187 g and 189 g and 178 g and 169 g and 196 g and 181 g
- Rat Weight [11]: 214 g and 212 g and 215 g and 219 g and 208 g and 210 g and 220 g (2×)
